# Source: PMC11203575, “The First In Vivo Study Shows That Gyrophoric Acid Changes Behavior of Healthy Laboratory Rats” (International Journal of Molecular Sciences, 2024)
# Target: T1, human serum albumin (HSA) (Homo sapiens, UniProt P02768)
# T1 construct: gene ALB; Albumin from human serum (A1887, Sigma Aldrich)
# Test: intrinsic fluorescence quenching titration (Stern-Volmer), synchronous and 3D fluorescence
# Type: binding
# Conditions: read-out: KB × 10^6 (M^-1) (converted)
# T1 sequence (P02768 25-609): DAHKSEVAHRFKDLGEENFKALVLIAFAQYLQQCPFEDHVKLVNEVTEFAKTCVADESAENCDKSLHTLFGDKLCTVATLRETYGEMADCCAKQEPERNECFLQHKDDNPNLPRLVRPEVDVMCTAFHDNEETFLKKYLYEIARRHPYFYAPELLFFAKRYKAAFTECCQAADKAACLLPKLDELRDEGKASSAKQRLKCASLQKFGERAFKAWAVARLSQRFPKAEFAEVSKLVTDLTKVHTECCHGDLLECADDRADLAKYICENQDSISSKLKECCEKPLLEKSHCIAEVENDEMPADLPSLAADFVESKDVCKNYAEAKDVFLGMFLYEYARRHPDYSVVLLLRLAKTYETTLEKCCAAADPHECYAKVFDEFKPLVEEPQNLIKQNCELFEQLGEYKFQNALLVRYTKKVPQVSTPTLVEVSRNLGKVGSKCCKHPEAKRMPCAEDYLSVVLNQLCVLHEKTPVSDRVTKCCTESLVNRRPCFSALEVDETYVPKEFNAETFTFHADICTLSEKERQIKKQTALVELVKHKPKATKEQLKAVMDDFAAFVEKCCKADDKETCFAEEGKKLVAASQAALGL
smiles,measurement,value
"Cc1cc(OC(=O)c2c(C)cc(OC(=O)c3c(C)cc(O)cc3O)cc2O)cc(O)c1C(=O)O [GA, Gyrophoric acid]",Kd,559 nM
